Assay [1] has as its target T1, human BACE1 (1-460):Fc (Homo sapiens, UniProt P56817).
T1 construct: made in house; host or cells: HEK293 (transient transfection, purified from conditioned media on Protein A-agarose)
Nature of the assay: BACE1 mcaFRET Assay. Format: biochemical. The conditions noted are these: FRET substrate 15 micromolar, pH 4.6, room temperature 16 to 24 hours. How it is done: (§1) For in vitro enzymatic and cellular assays, test compounds are prepared in DMSO to make up a 10 millimolar stock solution. The stock solution is serially diluted (in a 1:3, 1:2.5, 1:2, or 1:1 dilution series) in DMSO to obtain a final compound concentration of 10 millimolar to 1 micromolar at the first highest concentration of a ten-point dilution curve in a 96-well round-bottom plate right before conducting the in vitro enzymatic and whole assays.
Serial dilutions of test compounds are prepared as described above. Two microliter of each dilution is added to each well on row A to H of a corresponding low protein binding black plate to which 50 microliter of 50 millimolar ammonium acetate, pH 4.6, 1 mM Triton X-100, 1 mg/ml Bovine Serum Albumin, and 15 micromolar of FRET substrate (sequence: (MCA)-S-E-V-N-L-D-A-E-F-R-K(Dnp)-R-R-R-R-NH2) for BACE1 activity are pre-added. The content is mixed well on a plate shaker for 10 min. Fifty microliter of two hundred picomolar human BACE1 (1-460):Fc (See: Vasser, et al., Science, 286, 735-741 (1999)) in the same reaction buffer described above is added to the plate containing substrate and test compounds to initiate the reaction. The relative fluorescence unit (RFU) of the mixture at time 0 is recorded at excitation wavelength 330 nm and emission wavelength 400 nm, after brief mixing on a plate shaker. The reaction plate is covered with aluminum foil and kept in a dark humidified oven at room temperature for 16 to 24 hours. The RFU at the end of incubation is recorded with the same excitation and emission setting. The difference of the RFU at time 0 and the end of incubation represents the activity of BACE1 under the compound treatment. The 10-point inhibition curve was plotted and fitted with the four-parameter logistic equation to obtain the EC50 and IC50 values. (See: Sinha, et al., Nature, 402, 537-540 (2000)). […] Data for selected compounds of the invention tested in this assay are contained in the following table.
Both human (accession number: AF190725) and murine (accession number: NM_011792) BACE1 were cloned from total brain cDNA by […]. The nucleotide sequences corresponding to amino acid sequences #1 to 460 were inserted into the cDNA encoding human IgG1 (Fc) polypeptide (Vassar et al. 1999). This fusion protein of BACE1 (1-460) and human Fc, named huBACE1:Fc, was constructed into the pJB02 vector. Human BACE1(1-460):Fc (huBACE1:Fc) and murine BACE1(1-460):Fc (muBACE1:Fc) were transiently expressed in HEK293 cells. 250 μg cDNA of each construct was mixed with Fugene 6 and added to 1 liter HEK293 cells. Four days after the transfection, conditioned media were harvested for purification.
Conditioned media of HEK293 cell transiently transfected with huBACE1:Fc or muBACE1:Fc cDNA were collected. Cell debris was removed by filtering the conditioned media through 0.22 μm sterile filter. 5 ml Protein A-agarose (bed volume) was added to 4 liter conditioned media. This mixture was gently stirred overnight at 4° C. The Protein A-agarose resin was collected and packed into a low-pressure chromatography column. The column washed with 20× bed volumes of PBS at flow rate 20 ml per hour. Bound huBACE1:Fc or muBACE1:Fc protein was eluted with 50 mM acetic acid, pH 3.6, at flow rate 20 ml per hour. 1 ml fractions of eluate were neutralized immediately with 0.5 ml 200 mM ammonium acetate, pH 6.5. The purity of final product was assessed by electrophoresis in 4-20% Tris-Glycine SDS-PAGE. The enzyme was stored at −80 C in small aliquots.

The target in assay [2] is T2, beta-secretase activity (Homo sapiens, UniProt P56817).
T2 construct: endogenous in cells; host or cells: HEK293p (ATCC CRL-1573) stably expressing human APP751sw or APP751wt
Nature of the assay: Whole cell assay for measuring the inhibition of beta-secretase activity. The conditions noted are these: HEK293/APP751sw or HEK293/APP751wt cells, 37 C for 4 to 6 hours, sandwich ELISA of conditioned media; read-out: IC50 (Abeta, sAPPbeta-lowering effect). It counts as cell-based. How it is done:
as §1
The routine whole cell assay for the measurement of inhibition of beta-secretase activity utilizes the human embryonic kidney cell line HEK293p (ATCC Accession No. CRL-1573) stably expressing a human APP751 cDNA containing the naturally occurring double mutation […] to Asn651Leu652, commonly called the Swedish mutation (noted HEK293/APP751sw) and shown to overproduce Abeta (Citron et al., 1992, Nature 360:672-674). Human embryonic kidney HEK293p cells stably expressing wild-type human APP751 cDNA (noted HEK293/APP751 wt) are also used to assess the inhibition of beta-secretase activity. In vitro Aβ reduction assays have been described in the literature (See: Dovey, et al., Journal of Neurochemistry, 76, 173-181 (2001); Seubert, et al., Nature, 361, 260 (1993); and Johnson-Wood, et al., Proc. Natl. Acad. Sci. USA, 94, 1550-1555 (1997))
Cells (HEK293/APP751sw or HEK293/APP751wt, at 3×10^4 cells/well, containing 200 microliters culture media, DMEM containing 10% FBS) are incubated at 37 C for 4 to 6 hours in the presence/absence of inhibitors (diluted in DMSO) at the desired concentration. At the end of the incubation, conditioned media are analyzed for beta-secretase activity, for example, by analysis of cleavage fragments, Abeta peptide and sAPPbeta. Abeta peptides are measured by a sandwich ELISA, using monoclonal 266 as a capture antibody and biotinylated 3D6 as reporting antibody. The sAPPbeta fragments are analyzed by a sandwich ELISA, using monoclonal 8E5 antibody as a capture antibody and rabbit polyclonal 192sw or 192wt as a reporting antibody. Note that sAPPbeta is the cleavage product of full length APP by BACE1. The concentration of sAPPbeta released in the conditioned media following the compound treatment corresponds to the activity of BACE1 under such conditions. The 10-point inhibition curve was plotted and fitted with the four-parameter logistic equation to obtain the EC50 and IC50 values for the Abeta, sAPPbeta-lowering effect. Data for selected compounds of the invention tested in this assay are contained in the following table.
(In general: In an ELISA, binding on a coated surface is turned into a signal by an enzyme label.)

SMILES strings stand for the structures. Where a name gives a salt, the structure may show the parent alone.

T2 sequence (P56817 46-501): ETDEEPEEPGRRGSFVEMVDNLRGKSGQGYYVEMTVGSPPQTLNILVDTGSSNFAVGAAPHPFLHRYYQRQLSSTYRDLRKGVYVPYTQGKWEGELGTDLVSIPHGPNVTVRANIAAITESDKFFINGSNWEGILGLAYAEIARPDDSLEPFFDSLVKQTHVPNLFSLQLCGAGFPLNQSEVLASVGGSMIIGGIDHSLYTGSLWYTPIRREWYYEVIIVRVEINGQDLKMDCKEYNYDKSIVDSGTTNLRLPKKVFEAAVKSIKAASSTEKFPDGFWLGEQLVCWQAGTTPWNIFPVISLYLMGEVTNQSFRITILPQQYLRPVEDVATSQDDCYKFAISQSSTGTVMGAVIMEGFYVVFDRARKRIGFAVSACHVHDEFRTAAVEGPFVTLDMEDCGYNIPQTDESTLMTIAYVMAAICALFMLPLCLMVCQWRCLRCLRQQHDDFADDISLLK
T1 sequence (P56817 22-460): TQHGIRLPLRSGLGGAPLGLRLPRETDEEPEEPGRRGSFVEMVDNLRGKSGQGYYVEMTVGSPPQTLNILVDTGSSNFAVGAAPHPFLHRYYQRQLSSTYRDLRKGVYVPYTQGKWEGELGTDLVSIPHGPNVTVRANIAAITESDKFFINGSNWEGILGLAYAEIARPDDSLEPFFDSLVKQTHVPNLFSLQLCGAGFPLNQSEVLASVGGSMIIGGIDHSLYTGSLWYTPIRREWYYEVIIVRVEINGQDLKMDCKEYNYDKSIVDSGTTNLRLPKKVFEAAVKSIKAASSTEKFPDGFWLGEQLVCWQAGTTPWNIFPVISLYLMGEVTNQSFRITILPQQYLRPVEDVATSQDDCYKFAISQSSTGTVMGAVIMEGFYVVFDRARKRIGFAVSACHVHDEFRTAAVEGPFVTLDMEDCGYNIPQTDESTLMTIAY

As to `CC(=O)N[C@@H](Cc1cc(F)cc(F)c1)[C@H](O)[C@H]1C[C@@H](CC(=O)N2CCOCC2)CN1` [Example 35, N-{(1S,2R)-1-(3,5-Difluoro-benzyl)-2-hydroxy-2-[(2R,4S)-4-(2-morpholin-4-yl-2-oxo-ethyl)-pyrrolidin-2-yl]-ethyl}-acetamide hydrochloride], in assay [1], the IC50 (as a rule, the point on the concentration scale where inhibition reaches its midpoint) came to 1400 nM. Regarding `CCC(C)Nc1cc(C(=O)NC(Cc2ccccc2)C(O)C2CCCN2)cc(N(C)S(C)(=O)=O)n1` [Example 12, N-((1S,2R)-1-Benzyl-2-hydroxy-2-(R)-pyrrolidin-2-ylethyl)-2-(S)-sec-butylamino-6-(methanesulfonyl-methylamino)-isonicotinamide hydrochloride], the 50% inhibitory concentration (IC50) worked out at 15 nM in assay [2] and 1.8 nM in assay [1]. With `CCC(C)Nc1cc(C(=O)NC(Cc2ccccc2)C(O)C2CC(F)CN2)cc(N(C)S(C)(=O)=O)n1` [Example 7, N-[1-(S)-Benzyl-2-(R)-(4-(S)-fluoropyrrolidin-2-yl)-2-(R)-hydroxyethyl]-2-(S)-sec-butylamino-6-(methanesulfonyl-methylamino)-isonicotinamide bishydrochloride], the values for the IC50 in assay [2] and in assay [1] were 13 nM and 3.9 nM, respectively. For `CC(=O)N[C@@H](Cc1cc(F)cc(F)c1)[C@H](O)[C@H]1C[C@@H](CC(=O)N2CCCCCC2)CN1` [Example 41, N-[(1S,2R)-2-[(2R,4S)-4-(2-Azepan-1-yl-2-oxo-ethyl)-pyrrolidin-2-yl]-1-(3,5-difluoro-benzyl)-2-hydroxy-ethyl]-acetamide hydrochloride] the same measures were 6070 nM and 380 nM.

Compound `CC(=O)N[C@@H](Cc1cc(F)cc(F)c1)[C@H](O)[C@H]1C[C@@H](CC(=O)N(C)C)CN1` [Example 37, 2-{(3S,5R)-5-[(1R,2S)-2-Acetylamino-3-(3,5-difluoro-phenyl)-1-hydroxy-propyl]-pyrrolidin-3-yl}-N,N-dimethyl-acetamide hydrochloride] had an IC50 in assay [1] of 5200 nM.

Take `CC(=O)N[C@@H](Cc1cc(F)cc(F)c1)[C@H](O)[C@H]1C[C@@H](CC(=O)N2CCCCC2)CN1` [Example 33, N-{(1S,2R)-1-(3,5-Difluoro-benzyl)-2-hydroxy-2-[(2R,4S)-4-(2-oxo-2-piperidin-1-yl-ethyl)-pyrrolidin-2-yl]-ethyl}-acetamide hydrochloride]: the IC50 was 14300 nM in assay [2] and 820 nM in assay [1].

The compound `CC(=O)N[C@@H](Cc1cc(F)cc(F)c1)[C@H](O)[C@H]1C[C@@H](OCCC2CCCCC2)CN1` [Example 60, N-[(1S,2R)-2-[(2R,4R)-4-(2-Cyclohexyl-ethoxy)-pyrrolidin-2-yl]-1-(3,5-difluoro-benzyl)-2-hydroxy-ethyl]-acetamide hydrochloride] displayed an IC50 in assay [1] of 2300 nM.

The values are drawn from US7585885B2, “Pyrrolidine derivatives useful as BACE inhibitors” (Eli Lilly and Company, priority 2004, dated 2009).
